Here are results for 1 compound from US20220054494A1, “METHODS FOR TREATING BLADDER AND URETHRA DYSFUNCTION AND DISEASE” (University of Pittsburgh - Of the Commonwealth System of …, priority 2019, published 2022).

Data set [1] concerns the target Rac 1 (Homo sapiens, UniProt P63000). Conditions: Jackson et al., J Am Heart Assoc 2018; cited from earlier work.
For data set [2] the following is noted: Jackson et al., J Pharmacol Exp Ther 2016; cited from earlier work.
Data set [3] deals with catalase. In words: Catalase activity in detrusor smooth muscle. Conditions: aged rats; oral 8-AG 5 mg/kg/day, 6 weeks. Type of data set: in vivo, rat.
In data set [4] the test system is purines in urine. In words: Purines in urine by mass spectrometry. Type of data set: in vivo, rat. Conditions: aged rats, oral 8-AG 5 mg/kg/day, 6 weeks. The protocol:
Protocol 2: Purines in urine were measured by mass spectrometry using selected reaction monitoring. Urine samples were diluted 1 to 30 with water, and heavy isotope internal standards were added to each sample. Purines were separated by reversed-phase ultra-performance liquid chromatography (Waters UPLC BEH C18 column, 1.7 μm beads; 2.1×150 mm; Milford, Mass.) and quantified by selected reaction monitoring using a triple quadrupole mass spectrometer (TSQ Quantum-Ultra; THERMOFISHER SCIENTIFIC®, San Jose, Calif.) with a heated electrospray ionization source. The mobile phase was a linear gradient flow rate (300 μL/min) of 1% acetic acid in water (pH, 3; mobile phase A) and 100% methanol (mobile phase B) and was delivered with a Waters Acquity ultra-performance liquid chromatographic system. The gradient (A/B) settings were as follows: from 0 to 2 minutes, 99.6%/0.4%; from 2 to 3 minutes, to 98.0%/2.0%; from 3 to 4 minutes, to 85.0%/15.0%; and from 4 to 6.5 minutes, to 99.6%/0.4%. The instrument parameters were: sample tray temperature, 10° C.; column temperature, 50° C.; ion spray voltage, 4.0 kilovolts; ion transfer tube temperature, 350° C.; source vaporization temperature, 320° C.; Q2 CID gas, argon at 1.5 mTorr; sheath gas, nitrogen at 60 psi; auxillary gas, nitrogen at 35 psi; Q1/Q3 width, 0.7/0.7 units full-width half-maximum; scan width, 0.6 units; scan time, 0.01 seconds. […]
Purine Metabolome Measurement: Purines in urine were measured by mass spectrometry using selected reaction monitoring.(7,13) Urine samples were diluted 1 to 30 with water, and heavy isotope internal standards were added to each sample. Purines were separated by reversed-phase ultra-performance liquid chromatography (Waters UPLC BEH C18 column, 1.7 μm beads; 2.1×150 mm; Milford, Mass.) and quantified by selected reaction monitoring using a triple quadrupole mass spectrometer (TSQ Quantum-Ultra; THERMOFISHER SCIENTIFIC®, San Jose, Calif.) with a heated electrospray ionization source. […]

Data set [5] relates to CYP-treated rats. Briefly: Voiding analysis in cyclophosphamide (CYP) cystitis model. The data set is classed as in vivo, rat. Conditions: CYP (75 mg/kg i.p.) female Sprague Dawley rats; oral 8-AG 5 mg/kg/day starting one week prior to CYP. The protocol:
Animals: Female Sprague Dawley rats were employed in this example (Charles River; Wilmington, Mass.). Three groups of animals were included. Group 1 received an i.p. injection of saline and was used as a control; groups 2 and 3 received an i.p. injection of cyclophosphamide (CYP, SIGMA-ALDRICH®, St Louis, Mo., day 0, 3, 6, sacrifice day 8, 75 mg/kg, i.p.) with group 3 treated with oral 8-AG (5 mg/kg/day; starting one week prior to CYP). CYP induced bladder inflammation and is a well-established pre-clinical model for BPS/IC.
Voiding Analysis: Untreated, CYP-treated, and 8-AG-treated CYP rats were placed in metabolic cages (24 hr; once per week) for the duration of the study. The light cycle was from 7:00 AM to 7:00 PM, and food and water were provided ad libitum. […] Data were averaged for 24 h and analyzed for 12-h periods during the day (7:00 AM-7:00 PM) and night (7:00 PM-7:00 AM). Voiding frequency, total voided volume, and volume per void were analyzed. Voiding frequency was calculated as the number of voiding events per hour during 24 hr and during the 12-hr day and 12-hr night periods. Volume per void, which defines bladder capacity, was calculated as an average of the voids occurring during these periods.

SMILES strings stand for the structures. “Also recorded” adds a separate entry of the source.

In the case of `Nc1nc2[nH]c(N)nc2c(=O)[nH]1` [8-AG, 8-Aminoguanine], in data set [1], the “Rac 1 inhibition (mechanism of reduced potassium excretion)” value was “inhibiting”. Besides, in data set [2], the diuresis entry is recorded as “induce”, the glucosuria entry is “induce”, the natriuresis entry is “induce” and the potassium excretion entry was “reduce”. The “catalase activity in detrusor smooth muscle” value in data set [3] is listed as “levels similar to the younger state; also recorded: restored these biomarkers to that of a younger state”. For the same compound, the urinary hypoxanthine levels entry in data set [4] is “significantly reduced; also recorded: levels comparable to younger rats; also recorded: normalizes; also recorded: restored to younger levels”. In addition, in data set [4] (compared with young rats), the urinary guanosine levels result is “similar; also recorded: recovered”. Besides, in data set [4] (undetectable in untreated aged rats), the “urinary levels of 8-AG” value is reported as “restored to younger levels”. In data set [5], the intercontraction interval result was “attenuates” and the voiding frequency entry was “attenuates”.
